Values of other authors as cited in US7022306B1, “Process for the production of hydrogen” (UOP LLC, priority 2003, dated 2006).
Where two headings read alike, the source gives them in different places.

Tests used:
Rat [1] = system: Rat
Rat [2] = system: Rat; remark: listed apart in the source

Compound: CCCC [Butane]
- Toxicity LC50 (mg/liter) Inhalation-Rat (Rat [1]; for 4 hours): 658 for 4 hours mg/liter

Compound: CC(C)O [Isopropanol]
- Toxicity LD50 (mg/kg) Oral-Rat (Rat [2]): 5045 mg/kg

Compound: CC(C)OC(C)C [Isopropylether]
- Toxicity LD50 (mg/kg) Oral-Rat (Rat [2]): 8470 mg/kg

Compound: C [Methane]
- Toxicity LC50 (mg/liter) Inhalation-Rat (Rat [1]): >5 mg/L

Compound: CCCCC [Pentane]
- Toxicity LD50 (mg/kg) Oral-Rat (Rat [2]): >2000 mg/kg

Compound: OC[C@@H](O)[C@@H](O)[C@H](O)[C@@H](O)CO [Sorbitol]
- Toxicity LD50 (mg/kg) Oral-Rat (Rat [2]): 15900 mg/kg
